In patent US7794753B2, “Synergistic hepatoprotective composition and a method thereof” (Council of Scientific and Industrial Research, priority 2003, dated 2010):

How the values were obtained:
[1] = tested on: Paracetamol (APAP) induced hepatic injury; format: in vivo; details: prophylactic
Experimental: […] Formulation is extremely safe having a therapeutic index of >40. No mortality was recorded up to a dose of 2 g-kg-1 p.o. in mice.

[2] = After 72 hrs, mostly by urinary excretion; cited from earlier work
[3] = tested on: restinosis following Angio plasty; details: animal model, compared with fish oil; cited from earlier work
[4] = tested on: Acetaminophen (APAP) induced hepatic injury; assay: Hepatoprotective activity (in vivo) of TCA and silymarin (Pre-treatment), diethyl-ether plus Acetaminophen (APAP) (prophylactic study); design: species or system Mice: Swiss albino; details: 50 mg/kg p.o. fed at 72 h, 48 h, 24 h, 1 h before diethyl-ether and 1 h after APAP 200 mg/kg i.p.
[5] = tested on: paracetamol (APAP) induced hepatic injury; assay: Hepatoprotective activity (in vivo) of synergistic formulation and Silymarin against paracetamol (APAP) induced hepatic injury in mice (prophylactic study); details: 50 mg/kg p.o. + APAP
Experimental: All the list materials were administered P.O. routes in a uniform dose level of 50 mg kg-1. Formulation is extremely safe having a therapeutic index of >40. No mortality was recorded up to a dose of 2 g-kg-1 p.o. in mice.

Compound | Hepatic GSH (glutathione) ([1]; 50 mg kg−1 + APAP) | Serum TG, percent hepatoprotective activity (in parentheses) ([1]; 100 mg kg−1 + APAP) | excreted [2] | preventing the incidence and severity of restinosis following Angio plasty [3] | Serum Bilirubin, percent hepatoprotective activity [4] | S. Albumin, percent hepatoprotective activity [5]
C=C1CC[C@@H]2[C@](C)(CO)[C@H](O)CC[C@@]2(C)[C@@H]1C/C=C1/C(=O)OC[C@H]1O [AP, andrographolide] | 4.48 ± 0.25 μmole GSH/g liver | (63.00) % | ~90% | twice as effective as fish oil | – | –
CCCCCCCC/C=C/CCCCCCCCCCCCCC(=O)O [TCA, trans-tetracos-15-enoic acid] | – | – | – | – | 56.35% | 56.35%
